Assay results taken from ChEMBL document CHEMBL1143302, “Identification of 3-amido-4-anilinoquinolines as potent and selective inhibitors of CSF-1R kinase” (Bioorg Med Chem Lett, 2009).

How the values were obtained:
Type in all cases: ADME, organism-based
[1] = Clearance in rat at 3 mg/kg, iv and 10 mg/kg, po; details: in vivo
[2] = Volume of distribution at steady state in rat at 3 mg/kg, iv and 10 mg/kg, po; details: in vivo, read-out: Vdss
[3] = Half life in rat at 3 mg/kg, iv and 10 mg/kg, po; details: in vivo
[4] = Bioavailability in rat at 3 mg/kg, iv and 10 mg/kg, po; details: in vivo

| Structure (SMILES) | clearance [1] | Vd [2] | half-life [3] | bioavailability [4] |
| --- | --- | --- | --- | --- |
| COc1cc2c(Nc3ccc(F)cc3F)c(C(N)=O)cnc2cc1NCCN(C)C | 220 mL/min/kg | 36 L/kg | 1.9 h | – |
| COc1cc2c(Nc3ccc(F)c(Cl)c3)c(C(N)=O)cnc2cc1OCCNC1CC1 | 230 mL/min/kg | 30 L/kg | 1.7 h | – |
| COc1cc2c(Nc3cccc(Cl)c3Cl)c(C(N)=O)cnc2cc1NCCN(C)C | 90 mL/min/kg | 19 L/kg | 2.4 h | – |
| CCOc1cc2ncc(C(N)=O)c(Nc3cccc(Cl)c3Cl)c2cc1NCCN1CCCCC1 | 110 mL/min/kg | 12 L/kg | 1.6 h | – |
| COc1cc2c(Nc3ccc(F)c(Cl)c3)c(C(N)=O)cnc2cc1OCCN1CCCC1 | 270 mL/min/kg | 52 L/kg | 2.4 h | – |
| COc1cc2ncc(C(N)=O)c(Nc3cccc(Cl)c3Cl)c2cc1NCCN1CCCCC1 | 78 mL/min/kg | 8.5 L/kg | 1.6 h | – |
| COc1cc2ncc(C(N)=O)c(Nc3ccc(F)c(Cl)c3)c2cc1OC | 59 mL/min/kg | 1.8 L/kg | 0.6 h | 24% |
| COc1cc2c(Nc3ccc(F)c(Cl)c3)c(C(N)=O)cnc2cc1OCCN(C)C | 210 mL/min/kg | 40 L/kg | 2.1 h | – |
| COc1cc2ncc(C(N)=O)c(Nc3cccc(Cl)c3Cl)c2cc1OC | 115 mL/min/kg | 4.1 L/kg | 0.5 h | – |
| COc1cc2ncc(C(N)=O)c(Nc3ccc(F)cc3)c2cc1OC | 7 mL/min/kg | 0.3 L/kg | 0.9 h | 96% |
